# Patent US9181255B2, “Fused heteroaromatic pyrrolidinones as SYK inhibitors” (Takeda Pharmaceutical Company Limited, priority 2009, dated 2015)
# Target: SYK (Homo sapiens, UniProt P43405)
# Experiment: SYK inhibition assay: SYK-mediated phosphorylation of FAM-labeled substrate (Caliper microfluidic)
# Format: biochemical
# Conditions: read-out: SYK Inhibition (pIC50) (converted)
row,Structure (SMILES),IC50 [nM]
1,"CN[C@H]1CCCC[C@H]1Nc1nc2c(c(Nc3cccc(C)c3)n1)C(=O)NC2 [Example 38, 2-((1R,2S)-2-(Methylamino)cyclohexylamino)-4-(m-tolylamino)-6,7-dihydro-5H-pyrrolo[3,4-d]pyrimidin-5-one]",631
2,"Cc1cccc(Nc2nc(N[C@@H]3CCCC[C@@H]3N)nc3c2C(=O)NC32CC2)c1 [Example 39, 2′-((1R,2S)-2-Aminocyclohexylamino)-4′-(m-tolylamino)spiro[cyclopropane-1,7′-pyrrolo[3,4-d]pyrimidin]-5′(6′H)-one]",3160
3,"Cc1cccc(Nc2nc(NCCN)nc3c2C(=O)NC3)c1 [Example 40, 2-(2-Aminoethylamino)-4-(m-tolylamino)-6,7-dihydro-5H-pyrrolo[3,4-d]pyrimidin-5-one]",251
4,"Cc1cccc(Nc2nc(NCC(C)(C)N)nc3c2C(=O)NC3)c1 [Example 41, 2-(2-Amino-2-methylpropylamino)-4-(m-tolylamino)-6,7-dihydro-5H-pyrrolo[3,4-c]pyrimidin-5-one]",1260
5,"Cc1cccc(Nc2nc(NCC(N)=O)nc3c2C(=O)NC3)c1 [Example 42, 2-(5-oxo-4-(m-tolylamino)-6,7-dihydro-5H-pyrrolo[3,4-d]pyrimidin-2-ylamino)acetamide]",158
6,"Cc1cccc(Nc2nc(N(C)CCN)nc3c2C(=O)NC3)c1 [Example 43, 2-((2-Aminoethyl)(methyl)amino)-4-(m-tolylamino)-6,7-dihydro-5H-pyrrolo[3,4-d]pyrimidin-5-one]",5010
7,"Cc1cccc(Nc2nc(NCC3CCCN3)nc3c2C(=O)NC3)c1 (centres unmarked) [Example 44, 2-(Pyrrolidin-2-ylmethylamino)-4-(m-tolylamino)-6,7-dihydro-5H-pyrrolo[3,4-d]pyrimidin-5-one]",631
8,"Cc1cccc(Nc2nc(N3CCC(N)C3)nc3c2C(=O)NC3)c1 (centres unmarked) [Example 45, 2-(3-Aminopyrrolidin-1-yl)-4-(m-tolylamino)-6,7-dihydro-5H-pyrrolo[3,4-d]pyrimidin-5-one]",794
9,"Cc1c(-c2nc(N[C@@H]3CCCC[C@@H]3N)nc3c2C(=O)NC3)cnn1C [Example 46, 2-((1R,2S)-2-Aminocyclohexylamino)-4-(1,5-dimethyl-1H-pyrazol-4-yl)-6,7-dihydro-5H-pyrrolo[3,4-d]pyrimidin-5-one]",1580
10,"N[C@H]1CCCC[C@H]1Nc1nc2c(c(-c3cc4ccccc4[nH]3)n1)C(=O)NC2 [Example 47, 2-((1R,2S)-2-Aminocyclohexylamino)-4-(1H-indol-2-yl)-6,7-dihydro-5H-pyrrolo[3,4-c]pyrimidin-5-one]",2.51
11,"N[C@H]1CCCC[C@H]1Nc1nc2c(c(-c3ccn[nH]3)n1)C(=O)NC2 [Example 48, 2-((1R,2S)-2-Aminocyclohexylamino)-4-(1H-pyrazol-5-yl)-6,7-dihydro-5H-pyrrolo[3,4-c]pyrimidin-5-one]",794
12,"Cc1cccc(Nc2nc(CCCN)nc3c2C(=O)NC3)c1 [Example 49, 2-(3-Aminopropyl)-4-(m-tolylamino)-6,7-dihydro-5H-pyrrolo[3,4-d]pyrimidin-5-one]",> 20000
13,"N[C@H]1CCCC[C@H]1Nc1nc(-c2coc3ccccc23)c2c(c1F)CNC2=O [Example 50, 6-((1R,2S)-2-Aminocyclohexylamino)-4-(benzofuran-3-yl)-7-fluoro-1H-pyrrolo[3,4-c]pyridin-3(2H)-one]",2.51
14,"N[C@H]1CCCC[C@H]1Nc1nc(-c2cnc3ccccn23)c2c(c1F)CNC2=O [Example 51, 6-((1R,2S)-2-aminocyclohexylamino)-7-fluoro-4-(imidazo[1,2-a]pyridin-3-yl)-1H-pyrrolo[3,4-c]pyridin-3(2H)-one]",63.1
15,"N[C@H]1CCCC[C@H]1Nc1nc(-c2csc3ccccc23)c2c(c1F)CNC2=O [Example 52, 6-((1R,2S)-2-aminocyclohexylamino)-4-(benzo[b]thiophen-3-yl)-7-fluoro-1H-pyrrolo[3,4-c]pyridin-3(2H)-one]",63.1
16,"CCOC[C@H](N)CNc1cc2c(c(Nc3cccc(C)c3)n1)C(=O)NC2 [Example 54, (R)-6-(2-Amino-3-ethoxypropylamino)-4-(m-tolylamino)-1H-pyrrolo[3,4-c]pyridin-3(2H)-one]",251
17,"CCOC[C@H](N)CNc1nc(Nc2cccc(C)c2)c2c(c1F)CNC2=O [Example 55, (R)-6-(2-Amino-3-ethoxypropylamino)-7-fluoro-4-(m-tolylamino)-1H-pyrrolo[3,4-c]pyridin-3(2H)-one]",15.8
18,"Cc1cccc(Nc2nc(NCC(N)C(F)(F)F)cc3c2C(=O)NC3)c1 (centres unmarked) [Example 56, 6-(2-Amino-3,3,3-trifluoropropylamino)-4-(m-tolylamino)-1H-pyrrolo[3,4-c]pyridin-3(2H)-one]",2510
19,"Cc1cccc(Nc2nc(N[C@H](CC(C)C)C(N)=O)cc3c2C(=O)NC3)c1 [Example 57, (R)-4-Methyl-2-(3-oxo-4-(m-tolylamino)-2,3-dihydro-1H-pyrrolo[3,4-c]pyridin-6-ylamino)pentanamide]",15.8

row,Structure (SMILES),IC50 [nM]
1,"CCn1cc(-c2nc(N[C@@H]3CCCC[C@@H]3N)cc3c2C(=O)NC3)cn1 [Example 59, 6-((1R,2S)-2-Aminocyclohexylamino)-4-(1-ethyl-1H-pyrazol-4-yl)-1H-pyrrolo[3,4-c]pyridin-3(2H)-one]",79.4
2,"CCn1cc(-c2nc(N[C@@H]3CCCC[C@@H]3N)c(F)c3c2C(=O)NC3)cn1 [Example 60, 6-((1R,2S)-2-Aminocyclohexylamino)-4-(1-ethyl-1H-pyrazol-4-yl)-7-fluoro-1H-pyrrolo[3,4-c]pyridin-3(2H)-one]",15.8
3,N[C@H]1CCCC[C@H]1Nc1cc2c(c(-c3cnn(C4CC4)c3)n1)C(=O)NC2 [Example 61],63.1
4,"N[C@H]1CCCC[C@H]1Nc1nc(-c2cnn(C(F)F)c2)c2c(c1F)CNC2=O [Example 62, 6-((1R,2S)-2-Aminocyclohexylamino)-4-(1-(difluoromethyl)-1H-pyrazol-4-yl)-7-fluoro-1H-pyrrolo[3,4-c]pyridin-3(2H)-one]",10
5,"N[C@H]1CCCC[C@H]1Nc1nc(-c2cnn(C3CC3)c2)c2c(c1F)CNC2=O [Example 63, 6-((1R,2S)-2-Aminocyclohexylamino)-4-(1-cyclopropyl-1H-pyrazol-4-yl)-7-fluoro-1H-pyrrolo[3,4-c]pyridin-3(2H)-one]",7.94
6,"Cn1cc(-c2nc(N[C@@H]3CCOC[C@@H]3N)c(F)c3c2C(=O)NC3)cn1 [Example 65, 6-((3R,4R)-3-Aminotetrahydro-2H-pyran-4-ylamino)-7-fluoro-4-(1-methyl-1H-pyrazol-4-yl)-1H-pyrrolo[3,4-c]pyridin-3(2H)-one]",10
7,"CC(C)C[C@@H](Nc1nc(-c2cnn(C)c2)c2c(c1F)CNC2=O)C(N)=O [Example 70, (R)-2-(7-Fluoro-4-(1-methyl-1H-pyrazol-4-yl)-3-oxo-2,3-dihydro-1H-pyrrolo[3,4-c]pyridin-6-ylamino)-4-methylpentanamide]",1.58
8,"CC(C)C[C@@H](Nc1nc(-c2cnn(C(F)F)c2)c2c(c1F)CNC2=O)C(N)=O [Example 71, (R)-2-(4-(1-(Difluoromethyl)-1H-pyrazol-4-yl)-7-fluoro-3-oxo-2,3-dihydro-1H-pyrrolo[3,4-c]pyridin-6-ylamino)-4-methylpentanamide]",7.94
9,"CC(C)C[C@@H](Nc1nc(-c2cnn(C3CC3)c2)c2c(c1F)CNC2=O)C(N)=O [Example 72, (R)-2-(4-(1-Cyclopropyl-1H-pyrazol-4-yl)-7-fluoro-3-oxo-2,3-dihydro-1H-pyrrolo[3,4-c]pyridin-6-ylamino)-4-methylpentanamide]",31.6
10,"CC(C)C[C@@H](Nc1nc(-c2coc3ccccc23)c2c(c1F)CNC2=O)C(N)=O [Example 73, (R)-2-(4-(Benzofuran-3-yl)-7-fluoro-3-oxo-2,3-dihydro-1H-pyrrolo[3,4-c]pyridin-6-ylamino)-4-methylpentanamide]",7.94
11,"CC(C)C[C@@H](Nc1nc(-c2cnn3ccccc23)c2c(c1F)CNC2=O)C(N)=O [Example 74, (R)-2-(7-Fluoro-3-oxo-4-(pyrazolo[1,5-a]pyridin-3-yl)-2,3-dihydro-1H-pyrrolo[3,4-c]pyridin-6-ylamino)-4-methylpentanamide]",5.01
12,"COC[C@H](N)CNc1cc2c(c(Nc3cccc(C)c3)n1)C(=O)NC2 [Example 77, (R)-6-(2-Amino-3-methoxypropylamino)-4-(m-tolylamino)-1H-pyrrolo[3,4-c]pyridin-3(2H)-one]",31.6
13,"COC[C@H](N)CNc1nc(Nc2cccc(C)c2)c2c(c1C#N)CNC2=O [Example 78, (R)-6-(2-Amino-3-methoxypropylamino)-3-oxo-4-(m-tolylamino)-2,3-dihydro-1H-pyrrolo[3,4-c]pyridine-7-carbonitrile]",3.98
14,"COC[C@H](N)CNc1nc(Nc2cccc(C)c2)c2c(c1F)CNC2=O [Example 79, (R)-6-(2-Amino-3-methoxypropylamino)-7-fluoro-4-(m-tolylamino)-1H-pyrrolo[3,4-c]pyridin-3(2H)-one]",20
15,"C=CC(=O)c1c(N[C@@H]2CCCC[C@@H]2N)nc(Nc2cccc(C)c2)c2c1CNC2=O [Example 80, 7-Acryloyl-6-((1R,2S)-2-aminocyclohexylamino)-4-(m-tolylamino)-1H-pyrrolo[3,4-c]pyridin-3(2H)-one]",3160
16,"Cc1cccc(Nc2nc(N[C@@H]3CCCC[C@@H]3N)c(I)c3c2C(=O)NC3)c1 [Example 81, 6-((1R,2S)-2-Aminocyclohexylamino)-7-iodo-4-(m-tolylamino)-1H-pyrrolo[3,4-c]pyridin-3(2H)-one]",3.16
17,"Cc1cccc(Nc2nc(N[C@@H]3CCCC[C@@H]3N)c(-c3ccnn3C)c3c2C(=O)NC3)c1 [Example 84, 6-((1R,2S)-2-Aminocyclohexylamino)-7-(1-methyl-1H-pyrazol-5-yl)-4-(m-tolylamino)-1H-pyrrolo[3,4-c]pyridin-3(2H)-one]",20
18,"Cc1cccc(Nc2nc(N[C@@H]3CCOC[C@@H]3N)cc3c2C(=O)NC3)c1 [Example 85, 6-((3R,4R)-3-Aminotetrahydro-2H-pyran-4-ylamino)-4-(m-tolylamino)-1H-pyrrolo[3,4-c]pyridin-3(2H)-one]",3.98
19,"Cc1cccc(Nc2nc(N[C@H]3COCC[C@H]3N)cc3c2C(=O)NC3)c1 [Example 86, 6-((3R,4R)-4-Aminotetrahydro-2H-pyran-3-ylamino)-4-(m-tolylamino)-1H-pyrrolo[3,4-c]pyridin-3(2H)-one]",2510
